Measurements published in ChEMBL document CHEMBL5505963, “Novel berberine derivatives as p300 histone acetyltransferase inhibitors in combination treatment for breast cancer” (Eur J Med Chem, 2024).
Values belong to the compound of their own block, whether it stands above or below them. Calls of active or inactive are those of the source. The rule behind the calls is not given here.

What was measured:
MCF7 [1] = experiment: Synergistic antiproliferative activity against human MCF7 cells assessed as combination index at 5 uM incubated for 48 hrs in presence of 1 microg/ml doxorubicin by Chou-Talalay method; format: functional
MCF7 [2] = experiment: Synergistic antiproliferative activity against human MCF7 cells assessed as combination index at 5 uM incubated for 48 hrs in presence of 1.5 microg/ml doxorubicin by Chou-Talalay method; format: functional
MCF7 [3] = experiment: Synergistic antiproliferative activity against human MCF7 cells assessed as combination index at 20 uM incubated for 48 hrs in presence of 2.5 microg/ml doxorubicin by Chou-Talalay method; format: functional
MCF7 [4] = experiment: Synergistic antiproliferative activity against human MCF7 cells assessed as combination index at 5 uM incubated for 48 hrs in presence of 0.5 microg/ml doxorubicin by Chou-Talalay method; format: functional
MCF7 [5] = experiment: Downregulation of c-Myc level in human MCF7 cells at 40 uM incubated for 24 hrs in presence of doxorubicin by Western blot analysis; format: functional, cell-based
MCF7 [6] = experiment: Downregulation of H3K27 level in human MCF7 cells incubated for 24 hrs by Western blot analysis; format: functional, cell-based; details: dose <= 160.0 µM
MCF7 [7] = experiment: Synergistic antiproliferative activity against human MCF7 cells assessed as combination index at 40 uM incubated for 48 hrs in presence of 1 microg/ml doxorubicin by Chou-Talalay method; format: functional
MCF7 [8] = experiment: Inhibition of cell migration in human MCF7 cells assessed as measured after 24 hrs in presence of doxorubicin by microscopic analysis; format: functional
MCF7 [9] = experiment: Inhibition of cell migration in human MCF7 cells assessed as reduction in scratch measured after 24 hrs by microscopic analysis; format: functional
MCF7 [10] = experiment: Induction of apoptosis in human MCF7 cells assessed as upregulation of cleaved caspase 3 level at 40 uM incubated for 24 hrs in presence of doxorubicin by Western blot analysis; format: functional, cell-based
MCF7 [11] = experiment: Synergistic antiproliferative activity against human MCF7 cells assessed as combination index at 40 uM incubated for 48 hrs in presence of 0.5 microg/ml doxorubicin by Chou-Talalay method; format: functional
PANC-1 = experiment: Antiproliferative activity against human PANC-1 cells assessed as inhibition of cell growth incubated for 48 hrs by MTT assay; format: functional, cell-based; details: PANC-1, 48 h
MCF7 [12] = experiment: Synergistic antiproliferative activity against human MCF7 cells assessed as reduction in cell viability at 5 to 20 uM incubated for 48 hrs in presence of 40 microg/ml doxorubicin by MTT assay; format: functional; details: dose 5-20 µM
MCF7 [13] = experiment: Inhibition of cell invasion in human MCF7 cells measured after 24 hrs in presence of doxorubicin by crystal violet staining based microscopic analysis; format: functional
MCF7 [14] = experiment: Antiproliferative activity against human MCF7 cells assessed as inhibition of cell growth incubated for 48 hrs by MTT assay; format: functional, cell-based; details: MCF7, 48 h
MCF7 [15] = experiment: Downregulation of survivin level in human MCF7 cells at 40 uM incubated for 24 hrs in presence of doxorubicin by Western blot analysis; format: functional, cell-based
MCF7 [16] = experiment: Synergistic antiproliferative activity against human MCF7 cells assessed as combination index at 10 uM incubated for 48 hrs in presence of 3 microg/ml doxorubicin by Chou-Talalay method; format: functional
MCF7 [17] = experiment: Synergistic antiproliferative activity against human MCF7 cells assessed as combination index at 40 uM incubated for 48 hrs in presence of 1.5 microg/ml doxorubicin by Chou-Talalay method; format: functional
MCF7 [18] = experiment: Synergistic antiproliferative activity against human MCF7 cells assessed as combination index at 40 uM incubated for 48 hrs in presence of 2 microg/ml doxorubicin by Chou-Talalay method; format: functional
MCF7 [19] = experiment: Synergistic antiproliferative activity against human MCF7 cells assessed as combination index at 20 uM incubated for 48 hrs in presence of 3 microg/ml doxorubicin by Chou-Talalay method; format: functional
MCF7 [20] = experiment: Synergistic antiproliferative activity against human MCF7 cells assessed as combination index at 40 uM incubated for 48 hrs in presence of 2.5 microg/ml doxorubicin by Chou-Talalay method; format: functional
MCF7 [21] = experiment: Synergistic antiproliferative activity against human MCF7 cells assessed as reduction in cell viability at 5 to 20 uM incubated for 48 hrs in presence of 1 microg/ml doxorubicin by MTT assay; format: functional; details: dose 5-20 µM
MCF7 [22] = experiment: Antiproliferative activity against human MCF7 cells assessed as inhibition of cell proliferation incubated for 48 hrs by MTT assay; format: functional, cell-based; details: MCF7, 48 h
MCF7 [23] = experiment: Synergistic antiproliferative activity against human MCF7 cells assessed as combination index at 5 uM incubated for 48 hrs in presence of 3 microg/ml doxorubicin by Chou-Talalay method; format: functional
MCF7 [24] = experiment: Antitumor activity against human MCF7 cells xenografted in BALB/c nude mouse assessed as tumor growth inhibition at 50 mg/kg, ip measured upto 14 days in presence of doxorubicin; format: functional; details: MCF7, 336 h, time <= 14 day, read-out: TGI
MCF7 [25] = experiment: Synergistic antiproliferative activity against human MCF7 cells assessed as combination index at 10 uM incubated for 48 hrs in presence of 1.5 microg/ml doxorubicin by Chou-Talalay method; format: functional
MCF-10A = experiment: Antiproliferative activity against human MCF-10A cells assessed as inhibition of cell growth incubated for 48 hrs by MTT assay; format: functional, cell-based
MCF7 [26] = experiment: Synergistic antiproliferative activity against human MCF7 cells assessed as reduction in cell viability at 5 to 20 uM incubated for 48 hrs in presence of 2.5 microg/ml doxorubicin by MTT assay; format: functional; details: dose 5-20 µM
MCF7 [27] = experiment: Synergistic antiproliferative activity against human MCF7 cells assessed as combination index at 20 uM incubated for 48 hrs in presence of 1.5 microg/ml doxorubicin by Chou-Talalay method; format: functional
MCF7 [28] = experiment: Synergistic antiproliferative activity against human MCF7 cells assessed as combination index at 10 uM incubated for 48 hrs in presence of 2 microg/ml doxorubicin by Chou-Talalay method; format: functional
MCF7 [29] = experiment: Inhibition of cell invasion in human MCF7 cells measured after 24 hrs by crystal violet staining based microscopic analysis; format: functional
[30] = Toxicity in BALB/c nude mouse xenografted with human MCF7 cells assessed as loss of body weight at 50 mg/kg, ip measured upto 14 days; format: organism-based; details: in vivo, 336 h, time < 14 day
MCF7 [31] = experiment: Synergistic antiproliferative activity against human MCF7 cells assessed as combination index at 10 uM incubated for 48 hrs in presence of 1 microg/ml doxorubicin by Chou-Talalay method; format: functional
MCF7 [32] = experiment: Synergistic antiproliferative activity against human MCF7 cells assessed as combination index at 5 uM incubated for 48 hrs in presence of 2.5 microg/ml doxorubicin by Chou-Talalay method; format: functional
MCF7 [33] = experiment: Synergistic antiproliferative activity against human MCF7 cells assessed as combination index at 20 uM incubated for 48 hrs in presence of 1 microg/ml doxorubicin by Chou-Talalay method; format: functional
LNCaP = experiment: Antiproliferative activity against human LNCaP cells assessed as inhibition of cell growth incubated for 48 hrs by MTT assay; format: functional, cell-based
MCF7 [34] = experiment: Induction of apoptosis in human MCF7 cells assessed as upregulation of cleaved PARP level at 40 uM incubated for 24 hrs in presence of doxorubicin by Western blot analysis; format: functional, cell-based
MCF7 [35] = experiment: Synergistic antiproliferative activity against human MCF7 cells assessed as combination index at 40 uM incubated for 48 hrs in presence of 3 microg/ml doxorubicin by Chou-Talalay method; format: functional
MCF7 [36] = experiment: Synergistic antiproliferative activity against human MCF7 cells assessed as combination index at 10 uM incubated for 48 hrs in presence of 0.5 microg/ml doxorubicin by Chou-Talalay method; format: functional
MCF7 [37] = experiment: Antitumor activity against human MCF7 cells xenografted in BALB/c nude mouse assessed as tumor growth inhibition at 50 mg/kg, ip measured upto 14 days; format: functional; details: MCF7, 336 h, time <= 14 day, read-out: TGI
MCF7 [38] = experiment: Synergistic antiproliferative activity against human MCF7 cells assessed as combination index at 20 uM incubated for 48 hrs in presence of 0.5 microg/ml doxorubicin by Chou-Talalay method; format: functional
[39] = target: Histone acetyltransferase p300 (Homo sapiens, UniProt Q09472); experiment: Inhibition of p300 HAT (unknown origin) using 3H-acetyl-CoA as substrate assessed as H3 peptide acetylation preincubated with compound for 15 mins followed by substrate addition and measured after 30 mins by microbeta scintillation counter analysis
MCF7 [40] = experiment: Synergistic antiproliferative activity against human MCF7 cells assessed as combination index at 10 uM incubated for 48 hrs in presence of 2.5 microg/ml doxorubicin by Chou-Talalay method; format: functional
MCF7 [41] = experiment: Downregulation of H3K27 level in human MCF7 cells upto 160 uM incubated for 24 hrs in presence of doxorubicin by Western blot analysis; format: functional, cell-based
MCF7 [42] = experiment: Synergistic antiproliferative activity against human MCF7 cells assessed as combination index at 5 uM incubated for 48 hrs in presence of 2 microg/ml doxorubicin by Chou-Talalay method; format: functional
MCF7 [43] = experiment: Synergistic antiproliferative activity against human MCF7 cells assessed as combination index at 20 uM incubated for 48 hrs in presence of 2 microg/ml doxorubicin by Chou-Talalay method; format: functional

Sequence of Histone acetyltransferase p300 (Q09472 whole entry): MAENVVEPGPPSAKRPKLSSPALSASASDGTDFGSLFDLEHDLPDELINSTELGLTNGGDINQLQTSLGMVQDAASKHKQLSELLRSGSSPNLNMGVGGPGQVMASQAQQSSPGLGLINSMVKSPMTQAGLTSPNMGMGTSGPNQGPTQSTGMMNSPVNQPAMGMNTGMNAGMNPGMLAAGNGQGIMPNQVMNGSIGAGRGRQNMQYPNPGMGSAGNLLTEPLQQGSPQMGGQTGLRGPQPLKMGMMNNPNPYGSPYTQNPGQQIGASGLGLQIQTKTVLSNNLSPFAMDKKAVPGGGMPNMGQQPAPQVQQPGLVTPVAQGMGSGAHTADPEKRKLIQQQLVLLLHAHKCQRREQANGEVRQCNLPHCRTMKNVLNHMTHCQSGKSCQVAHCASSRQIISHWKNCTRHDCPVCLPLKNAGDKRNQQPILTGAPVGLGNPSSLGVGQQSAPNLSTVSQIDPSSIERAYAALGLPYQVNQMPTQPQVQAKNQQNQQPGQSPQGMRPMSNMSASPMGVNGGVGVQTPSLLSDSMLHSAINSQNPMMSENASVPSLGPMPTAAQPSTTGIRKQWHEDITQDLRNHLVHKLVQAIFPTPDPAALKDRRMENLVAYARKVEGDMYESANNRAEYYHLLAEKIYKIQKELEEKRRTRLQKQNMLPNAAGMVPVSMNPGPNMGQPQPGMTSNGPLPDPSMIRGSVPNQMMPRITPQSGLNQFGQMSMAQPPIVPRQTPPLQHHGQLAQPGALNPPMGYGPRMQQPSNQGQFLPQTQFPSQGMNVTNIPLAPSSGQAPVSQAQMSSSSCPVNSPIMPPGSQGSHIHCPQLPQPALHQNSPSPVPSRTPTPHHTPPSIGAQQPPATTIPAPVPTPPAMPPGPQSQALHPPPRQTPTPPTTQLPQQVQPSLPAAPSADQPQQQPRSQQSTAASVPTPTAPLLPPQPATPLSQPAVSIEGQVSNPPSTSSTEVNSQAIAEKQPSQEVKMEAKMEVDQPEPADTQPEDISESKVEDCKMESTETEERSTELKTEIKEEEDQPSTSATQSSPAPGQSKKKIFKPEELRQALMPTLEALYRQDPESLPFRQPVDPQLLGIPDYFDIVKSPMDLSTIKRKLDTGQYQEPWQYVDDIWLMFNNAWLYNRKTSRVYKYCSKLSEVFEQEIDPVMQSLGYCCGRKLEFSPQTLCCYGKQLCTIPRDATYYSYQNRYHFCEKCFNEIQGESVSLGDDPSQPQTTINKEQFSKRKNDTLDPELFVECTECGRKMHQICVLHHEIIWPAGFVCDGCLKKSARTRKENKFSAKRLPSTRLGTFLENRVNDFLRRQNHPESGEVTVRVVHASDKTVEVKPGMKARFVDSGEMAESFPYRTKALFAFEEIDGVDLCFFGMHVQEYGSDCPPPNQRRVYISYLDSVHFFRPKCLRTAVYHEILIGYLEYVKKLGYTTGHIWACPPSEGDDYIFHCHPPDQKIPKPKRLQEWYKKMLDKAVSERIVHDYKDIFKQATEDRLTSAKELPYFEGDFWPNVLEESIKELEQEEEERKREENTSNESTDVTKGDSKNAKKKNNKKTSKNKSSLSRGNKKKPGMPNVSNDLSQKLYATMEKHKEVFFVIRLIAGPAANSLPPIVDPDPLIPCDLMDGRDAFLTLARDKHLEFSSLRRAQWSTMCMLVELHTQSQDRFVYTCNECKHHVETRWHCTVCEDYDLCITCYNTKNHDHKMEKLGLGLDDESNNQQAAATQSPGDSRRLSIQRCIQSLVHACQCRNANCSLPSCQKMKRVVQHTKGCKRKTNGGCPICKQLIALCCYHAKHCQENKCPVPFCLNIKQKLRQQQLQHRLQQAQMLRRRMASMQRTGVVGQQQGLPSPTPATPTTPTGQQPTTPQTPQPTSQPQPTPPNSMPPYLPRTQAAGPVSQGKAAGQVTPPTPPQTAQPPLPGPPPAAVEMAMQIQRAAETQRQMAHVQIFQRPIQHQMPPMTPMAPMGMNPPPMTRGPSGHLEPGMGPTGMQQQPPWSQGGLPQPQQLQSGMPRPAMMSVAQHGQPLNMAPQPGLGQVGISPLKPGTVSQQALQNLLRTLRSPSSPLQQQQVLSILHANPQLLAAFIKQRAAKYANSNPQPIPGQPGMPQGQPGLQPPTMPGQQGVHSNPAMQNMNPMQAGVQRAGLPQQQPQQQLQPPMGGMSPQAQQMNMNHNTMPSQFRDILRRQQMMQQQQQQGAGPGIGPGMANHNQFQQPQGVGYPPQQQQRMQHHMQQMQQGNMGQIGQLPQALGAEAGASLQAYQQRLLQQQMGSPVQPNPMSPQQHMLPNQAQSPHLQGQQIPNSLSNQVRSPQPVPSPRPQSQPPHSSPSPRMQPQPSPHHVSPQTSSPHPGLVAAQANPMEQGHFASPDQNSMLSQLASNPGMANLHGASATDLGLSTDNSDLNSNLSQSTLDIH

IC50 [39]: > 20 µM
SMILES: COc1cc2cc3[n+](cc2cc1OC)CCCS(=O)(=O)c1cc2c(cc1-3)OCO2

IC50 [39]: 9.31 µM
SMILES: C1=CC2C=C3c4cc5c(cc4OCC[N+]3=CC2S1)OCO5 (stereo unspecified)

IC50 (PANC-1): 38.6 µM | IC50 (MCF7 [14]): 37.8 µM | IC50 (LNCaP): 33.5 µM | IC50 [39]: 3.69 µM
SMILES: COc1cc2cc3[n+](cc2cc1OC)CCCOc1cc2c(cc1-3)OCO2
IC50 (MCF-10A): > 50 µM

IC50 [39]: > 20 µM
SMILES: COc1ccc2cc3[n+](cc2c1OC)CCc1c-3oc2ccccc12

IC50 [39]: 8.01 µM
SMILES: COc1ccc2cc3[n+](cc2c1OC)CCOc1cc2c(cc1-3)OCO2

Second part, the compound before the results:

SMILES: COc1cc2cc3[n+](cc2cc1OC)CCOc1cc2c(cc1-3)OCO2.[Cl-]
CI (MCF7 [1]): 165.98 | CI (MCF7 [2]): 94.38 | CI (MCF7 [3]): 2.28 | CI (MCF7 [4]): 517.04 | Activity (MCF7 [5]): Active | Activity (MCF7 [6]): Dose-Dependent Effect | CI (MCF7 [7]): 0.59 | inhibition (INH) (MCF7 [8]): 34.22% | inhibition (INH) (MCF7 [9]): 52.05% | Activity (MCF7 [10]): Active | CI (MCF7 [11]): 1.85 | IC50 (PANC-1): > 50 µM | Activity (MCF7 [12]): 36% | inhibition (MCF7 [13]): Active | IC50 (MCF7 [14]): 17.3 µM | Activity (MCF7 [15]): Active | CI (MCF7 [16]): 13.65 | CI (MCF7 [17]): 0.57 | CI (MCF7 [18]): 0.66 | CI (MCF7 [19]): 1.86 | CI (MCF7 [20]): 0.6 | Activity (MCF7 [21]): 36% | IC50 (MCF7 [22]): 17.3 µM | CI (MCF7 [23]): 39.24 | inhibition in vivo at 50 mg/kg (MCF7 [24]): 83.9% | CI (MCF7 [25]): 38.44 | IC50 (MCF-10A): > 50 µM | Activity (MCF7 [26]): 27% | CI (MCF7 [27]): 3.59 | CI (MCF7 [28]): 80.19 | inhibition (MCF7 [29]): Active | Activity [30]: Non-Toxic | CI (MCF7 [31]): 37.99 | CI (MCF7 [32]): 57.34 | CI (MCF7 [33]): 3.44 | IC50 (LNCaP): 43.7 µM | Activity (MCF7 [34]): Active | CI (MCF7 [35]): 0.55 | CI (MCF7 [36]): 88.25 | inhibition in vivo at 50 mg/kg (MCF7 [37]): 59.9% | CI (MCF7 [38]): 3.11 | IC50 [39]: 1.51 µM | CI (MCF7 [40]): 12.07 | Activity (MCF7 [41]): Active | CI (MCF7 [42]): 113.55 | CI (MCF7 [43]): 2.65

SMILES: COc1ccc2cc3[n+](cc2c1OC)CCNc1cc2c(cc1-3)OCO2
IC50 [39]: 6.78 µM

SMILES: COc1cc2cc3[n+](cc2cc1OC)CCNc1cc2c(cc1-3)OCO2
IC50 (PANC-1): > 50 µM | IC50 (MCF7 [14]): 36.7 µM | IC50 (MCF-10A): > 50 µM | IC50 (LNCaP): > 50 µM | IC50 [39]: 3.39 µM

SMILES: COc1cc2cc3[n+](cc2cc1OC)CCSc1cc2c(cc1-3)OCO2
IC50 (PANC-1): 49.5 µM | IC50 (MCF7 [14]): 34.9 µM | IC50 (MCF-10A): > 50 µM | IC50 (LNCaP): 28.6 µM | IC50 [39]: 4.65 µM

SMILES: COc1ccc2cc3[n+](cc2c1OC)CCc1cc2c(cc1-3)OCO2 [BERBERINE CHLORIDE]
IC50 (PANC-1): > 50 µM | IC50 (MCF7 [14]): > 50 µM | IC50 (MCF-10A): > 50 µM | IC50 (LNCaP): > 50 µM | IC50 [39]: 8.91 µM

SMILES: COc1ccc2cc3[n+](cc2c1OC)CCCSc1cc2c(cc1-3)OCO2
IC50 [39]: > 20 µM

SMILES: CNC(=O)Nc1ccc2c(c1)CC[C@@]21OC(=O)N(CC(=O)N(Cc2ccc(F)cc2)[C@@H](C)C(F)(F)F)C1=O [A-485]
IC50 (PANC-1): > 30 µM | IC50 (MCF7 [14]): > 30 µM | IC50 (LNCaP): 1.7 µM

SMILES: COc1ccc2cc3[n+](cc2c1OC)CCSc1cc2c(cc1-3)OCO2
IC50 [39]: 10.3 µM
